Measured values from patent publication US9562031B1, “Phenethyldihydrobenzodioxolones and methods of use” (Sequoia Sciences, Inc., priority 2015, dated 2017).
Like-named read-outs stand apart in the source and are kept apart here. Each block holds one molecule with its values, some of them ahead of it.

How the values were obtained:
[1] = test system: M14 (amelanotic melanoma) cells; experiment: antiproliferation assay (72 h, CELLTITER 96), M14; assay type: cell-based, human; settings: Homo sapiens
Method: (§1) All of the compounds shown in Table 3-Table 8 below were prepared synthetically as described in EXAMPLE I. The compounds were tested for their ability to inhibit the proliferation of human cancer cells in vitro as described in the following paragraph. Table 3-Table 8 list the IC50 values in the M14 and NCI-H460 human cancer cell lines. IC50 is defined as the concentration of compound necessary to achieve 50% of the maximum growth inhibition.
(§2) For the antiproliferation assay, NCI-H460 (large cell lung carcinoma) or M14 (amelanotic melanoma) cells were grown in RPMI-1640 with 10% FBS supplemented with L-glutamine and HEPES. Cells were seeded into 96-well plates at 5×10^2 to 5×10^4 cells/well and allowed to adhere overnight; the medium was then removed. A stock solution of test compound in DMSO was diluted in medium to generate a series of working solutions. Aliquots (100 μl) of the working solutions were then added to the appropriate test wells to expose cells to the final concentrations of compound in a total volume of 100 μl. Seven different concentrations were tested, with 2-5 wells per concentration. Camptothecin was used as a positive control; wells containing vehicle without compound were used as negative controls. Plates were kept for 72 h in a 37° C., 5% CO2 incubator. After incubation, viable cells were detected with the CELLTITER 96 AQueous Non-Radioactive Cell Proliferation Assay (Promega), and IC50 values were determined using GraphPad Prism 5 software.

[2] = test system: NCI-H460 (large cell lung carcinoma) cells; experiment: antiproliferation assay (72 h, CELLTITER 96), NCI-H460; assay type: cell-based, human; settings: Homo sapiens
Method: as §1, §2

[3] = NCI-H460, Table 7, read-out: NCI-H460 IC50
[4] = NCI-H460, Table 4, read-out: NCI-H460 IC50
[5] = NCI-H460, Table 6, read-out: NCI-H460 IC50
[6] = NCI-H460, stereoisomers of compound 4, Table 1, read-out: IC50 NCI-H460
[7] = NCI-H460, Table 3, read-out: NCI-H460 IC50
[8] = NCI-H460, Table 5, read-out: NCI-H460 IC50
[9] = NCI-H460, Table 8, read-out: NCI-H460 IC50

- IC50 ([1]; Table 7): 510 nM
- IC50 [2, 3]: 860 nM
Structure (SMILES): C/C=C/[C@H]1C[C@]2([C@@H](C)Cc3cc(O)c(OC)cc3F)OCOC2=CC1=O [Compound 75, (6R,7aR)-7a-((S)-1-(2-fluoro-5-hydroxy-4-methoxyphenyl)propan-2-yl)-6-((E)-prop-1-en-1-yl)-7,7a-dihydrobenzo[d][1,3]dioxol-5 (6H)-one]

- IC50 ([1]; Table 4): 410 nM
- IC50 [2, 4]: 630 nM
Structure (SMILES): C=CC[C@H]1C[C@]2([C@@H](C)Cc3ccc(OC)c(C)c3)OCOC2=CC1=O [Compound 27, (6S,7aR)-6-allyl-7a-((S)-1-(4-methoxy-3-methylphenyl)propan-2-yl)-7,7a-dihydrobenzo[d][1,3]dioxol-5(6H)-one]

- IC50 ([1]; Table 6): 45 nM
- IC50 [2, 5]: 320 nM
Structure (SMILES): C=CC[C@H]1C[C@]2([C@H](C)Cc3ccc(OC)cc3Cl)OCOC2=CC1=O [Compound 54, (6S,7aR)-6-allyl-7a-((R)-1-(2-chloro-4-methoxyphenyl)propan-2-yl)-7,7a-dihydrobenzo[d][1,3]dioxol-5(6H)-one]

- IC50 ([1]; Table 7): > 20000 nM
- IC50 [2, 3]: > 20000 nM
Structure (SMILES): COc1ccc(CC(C)[C@]23CC(CC(C)=O)C(=O)C=C2OCO3)cc1OC (stereo partly shown) [Compound 106]

- IC50 ([1]; Table 4): 16 nM
- IC50 [2, 4]: 110 nM
Structure (SMILES): C=CC[C@H]1C[C@]2(C(C)Cc3ccc(OC)c(OC(C)=O)c3)OCOC2=CC1=O (stereo partly drawn) [Compound 33, 5-(2-((3aR,5S)-5-allyl-6-oxo-3a,4,5,6-tetrahydrobenzo[d][1,3]dioxol-3a-yl)propyl)-2-methoxyphenyl acetate]

- IC50 ([1]; Table 7): 6400 nM
- IC50 [2, 3]: 14000 nM
Structure (SMILES): COc1ccc(C[C@H](C)[C@]23C[C@H](C/C=C/c4ccccc4)C(=O)C=C2OCO3)cc1OC (relative stereo) [Compound 71, (6S,7aR)-6-cinnamyl-7a-((S)-1-(3,4-dimethoxyphenyl)propan-2-yl)-7,7a-dihydrobenzo[d][1,3]dioxol-5(6H)-one]

- IC50 ([1]; Table 6): 8800 nM
- IC50 [2, 5]: 10600 nM
Structure (SMILES): C=CC[C@H]1C[C@]2([C@@H](C)Cc3cccc(OC)c3)OCOC2=CC1=O [Compound 50, (6S,7aR)-6-allyl-7a-((S)-1-(3-methoxyphenyl)propan-2-yl)-7,7a-dihydrobenzo[d][1,3]dioxol-5(6H)-one]

- IC50 ([1]; Table 7): 220 nM
- IC50 [2, 3]: 370 nM
Structure (SMILES): C=C(C)C[C@H]1C[C@]2([C@@H](C)Cc3cc(O)c(OC)cc3F)OCOC2=CC1=O [Compound 80, (6S,7aR)-7a-((S)-1-(2-fluoro-5-hydroxy-4-methoxyphenyl)propan-2-yl)-6-(2-methylallyl)-7,7a-dihydrobenzo[d][1,3]dioxol-5(6H)-one]

- IC50 [2, 6]: 2500 nM
Structure (SMILES): C=CC[C@@H]1C[C@]2([C@@H](C)Cc3cc(O)c(OC)cc3F)OCOC2=CC1=O [SQ 1389]

- IC50 ([1]; Table 3): 14 nM
- IC50 [2, 7]: 120 nM
Structure (SMILES): C=CC[C@H]1C[C@]2([C@@H](C)Cc3cc(OC)c(OC)cc3F)OCOC2=CC1=O [Compound 15, (6S,7aR)-6-allyl-7a-((S)-1-(2-fluoro-4,5-dimethoxyphenyl)propan-2-yl)-7,7a-dihydrobenzo[d][1,3]dioxol-5(6H)-one]

- IC50 ([1]; Table 7): 5.9 nM
- IC50 [2, 3]: 67 nM
Structure (SMILES): CCC[C@H]1C[C@]2([C@H](C)Cc3cc(O)c(OC)cc3F)OCOC2=CC1=O [Compound 60]

- IC50 ([1]; Table 5): 75 nM
- IC50 [2, 8]: 330 nM
Structure (SMILES): C=CC[C@H]1C[C@]2([C@H](C)Cc3cc(F)c(N(C)C)cc3F)OCOC2=CC1=O [Compound 47, (6S,7aR)-6-allyl-7a-((R)-1-(4-(dimethylamino)-2,5-difluorophenyl)propan-2-yl)-7,7a-dihydrobenzo[d][1,3]dioxol-5(6H)-one]

- IC50 ([1]; Table 3): > 20000 nM
- IC50 [2, 7]: > 20000 nM
Structure (SMILES): C=CC[C@H]1C[C@]2([C@@H](C)Cc3cc(-c4ccccc4)c(OC)cc3F)OCOC2=CC1=O [Compound 91, (6S,7aR)-6-allyl-7a-((S)-1-(4-fluoro-6-methoxy-[1,1′-biphenyl]-3-yl)propan-2-yl)-7,7a-dihydrobenzo[d][1,3]dioxol-5(6H)-one]

- IC50 ([1]; Table 3): > 20000 nM
- IC50 [2, 7]: 2200 nM
Structure (SMILES): C=CC[C@H]1C[C@]2([C@@H](C)Cc3cc(C(=O)OC)c(OC)cc3F)OCOC2=CC1=O [Compound 10, methyl 5-((S)-2-((3aR,5S)-5-allyl-6-oxo-3a,4,5,6-tetrahydrobenzo[d][1,3]dioxol-3a-yl)propyl)-4-fluoro-2-methoxybenzoate]

- IC50 ([1]; Table 7): 120 nM
- IC50 [2, 3]: 290 nM
Structure (SMILES): C/C=C/[C@H]1C[C@]2([C@H](C)Cc3cc(O)c(OC)cc3F)OCOC2=CC1=O [Compound 74, (6R,7aR)-7a-((R)-1-(2-fluoro-5-hydroxy-4-methoxyphenyl)propan-2-yl)-6-((E)-prop-1-en-1-yl)-7,7a-dihydrobenzo[d][1,3]dioxol-5(6H)-one]

- IC50 ([1]; Table 8): 650 nM
- IC50 [2, 9]: 390 nM
Structure (SMILES): C=CC[C@H]1C[C@]2([C@@H](C)Cc3ccc4c(c3)OCO4)OCOC2=CC1=O [Compound 83, (6S,7aR)-6-allyl-7a-((S)-1-(benzo[d][1,3]dioxol-5-yl)propan-2-yl)-7,7a-dihydrobenzo[d][1,3]dioxol-5(6H)-one]

- IC50 ([1]; Table 3): > 20000 nM
- IC50 [2, 7]: > 20000 nM
Structure (SMILES): C=CC[C@H]1C[C@]2([C@H](C)Cc3cc(C(=O)N(C)C)c(OC)cc3F)OCOC2=CC1=O [Compound 93, 5-((R)-2-((3aR,5S)-5-allyl-6-oxo-3a,4,5,6-tetrahydrobenzo[d][1,3]dioxol-3a-yl)propyl)-4-fluoro-2-methoxy-N,N-dimethylbenzamide]

- IC50 ([1]; Table 3): 2800 nM
- IC50 [2, 7]: 3000 nM
Structure (SMILES): C=CC[C@H]1C[C@]2([C@H](C)Cc3ccc(OC)c(OC)c3F)OCOC2=CC1=O [Compound 21, (6S,7aR)-6-allyl-7a-((R)-1-(2-fluoro-3,4-dimethoxyphenyl)propan-2-yl)-7,7a-dihydrobenzo[d][1,3]dioxol-5(6H)-one]

- IC50 ([1]; Table 3): 270 nM
- IC50 [2, 7]: 720 nM
Structure (SMILES): C=CC[C@H]1C[C@]2([C@H](C)Cc3c(F)cc(OC)cc3F)OCOC2=CC1=O [Compound 23, (6S,7aR)-6-allyl-7a-((R)-1-(2,6-difluoro-4-methoxyphenyl)propan-2-yl)-7,7a-dihydrobenzo[d][1,3]dioxol-5(6H)-one]

- IC50 ([1]; Table 8): 4200 nM
- IC50 [2, 9]: 4600 nM
Structure (SMILES): C=CC[C@H]1C[C@]2(C(C)Cc3ccc(OC)c(OC)c3)OCOC2=C(C)C1=O (stereo partly drawn) [Compound 88, (6S,7aR)-6-allyl-7a-(1-(3,4-dimethoxyphenyl)propan-2-yl)-4-methyl-7,7a-dihydrobenzo[d][1,3]dioxol-5(6H)-one]

- IC50 ([1]; Table 6): 3300 nM
- IC50 [2, 5]: 3800 nM
Structure (SMILES): C=CC[C@H]1C[C@]2(C(C)Cc3cc(F)c(OC)c(F)c3)OCOC2=CC1=O (stereo partly drawn) [Compound 55, (6S,7aR)-6-allyl-7a-(1-(3,5-difluoro-4-methoxyphenyl)propan-2-yl)-7,7a-dihydrobenzo[d][1,3]dioxol-5(6H)-one]

- IC50 ([1]; Table 7): 1300 nM
- IC50 [2, 3]: 2500 nM
Structure (SMILES): C=C(Cl)C[C@H]1C[C@]2([C@@H](C)Cc3ccc(OC)cc3F)OCOC2=CC1=O [Compound 79, (6R,7aR)-6-(2-chloroallyl)-7a-((S)-1-(2-fluoro-4-methoxyphenyl)propan-2-yl)-7,7a-dihydrobenzo[d][1,3]dioxol-5(6H)-one]

- IC50 ([1]; Table 5): > 20000 nM
- IC50 [2, 8]: > 20000 nM
Structure (SMILES): C=CC[C@H]1C[C@]2([C@@H](C)Cc3ccc(N(C)C(C)=O)cc3)OCOC2=CC1=O [Compound 103, N-(4-((S)-2-((3aR,5S)-5-allyl-6-oxo-3a,4,5,6-tetrahydrobenzo[d][1,3]dioxol-3a-yl)propyl)phenyl)-N-methylacetamide]

- IC50 ([1]; Table 5): 810 nM
- IC50 [2, 8]: 2500 nM
Structure (SMILES): C=CC[C@H]1C[C@]2([C@@H](C)Cc3ccc(N)c(F)c3)OCOC2=CC1=O [Compound 42, (6S,7aR)-6-allyl-7a-((S)-1-(4-amino-3-fluorophenyl)propan-2-yl)-7,7a-dihydrobenzo[d][1,3]dioxol-5(6H)-one]

- IC50 ([1]; Table 7): 640 nM
- IC50 [2, 3]: 1200 nM
Structure (SMILES): COC[C@H]1C[C@]2([C@@H](C)Cc3cc(O)c(OC)cc3F)OCOC2=CC1=O [Compound 65, (6R,7aR)-7a-((S)-1-(2-fluoro-5-hydroxy-4-methoxyphenyl)propan-2-yl)-6-(methoxymethyl)-7,7a-dihydrobenzo[d][1,3]dioxol-5(6H)-one]

- IC50 ([1]; Table 5): > 20000 nM
- IC50 [2, 8]: > 20000 nM
Structure (SMILES): C=CC[C@H]1C[C@]2([C@@H](C)Cc3ccc(O)cc3)OCOC2=CC1=O [Compound 99, (6S,7aR)-6-allyl-7a-((S)-1-(4-hydroxyphenyl)propan-2-yl)-7,7a-dihydrobenzo[d][1,3]dioxol-5(6H)-one]

- IC50 ([1]; Table 4): 110 nM
- IC50 [2, 4]: 320 nM
Structure (SMILES): C=CC[C@H]1C[C@]2([C@H](C)Cc3ccc(OC)c(OC)c3)OCOC2=CC1=O [Compound 24, (6S,7aR)-6-allyl-7a-((R)-1-(3,4-dimethoxyphenyl)propan-2-yl)-7,7a-dihydrobenzo[d][1,3]dioxol-5(6H)-one]

- IC50 [2, 6]: 1900 nM
Structure (SMILES): C=CC[C@@H]1C[C@]2([C@H](C)Cc3cc(O)c(OC)cc3F)OCOC2=CC1=O [SQ 1378]

- IC50 ([1]; Table 3): 710 nM
Structure (SMILES): C=CC[C@H]1C[C@]2([C@@H](C)Cc3ccc(OC)c(OC)c3F)OCOC2=CC1=O [Compound 20, (6S,7aR)-6-allyl-7a-((S)-1-(2-fluoro-3,4-dimethoxyphenyl)propan-2-yl)-7,7a-dihydrobenzo[d][1,3]dioxol-5(6H)-one]
